Assay results from patent publication US20070122414A1, “Surface marker-directed cancer therapeutics” (Aurelium BioPharma Inc., priority 2005, published 2007).

System: SKOV3 ovarian tumor cells
Assay: SKOV3 tumor xenograft in nude mice, relative tumor volume (Example 1)
Format: in vivo
Settings: SKOV3 tumors in nude mice; intravenous
Experimental: Starting on the first day of treatment, tumor growth was measured by […], and the volume of the xenograft was monitored every 4 days. […] Mice were then treated with vimentin-directed therapeutics. […] Taxol was obtained commercially from Sigma Corp. (St. Louis, Mo.).
All treatments were introduced by intravenous administration. Mice were then sacrificed and tumors excised for relative volume determinations.

## CC(=O)O[C@H]1C(=O)[C@@]2(C)[C@H]([C@H](OC(=O)c3ccccc3)[C@]3(O)C[C@H](OC(=O)[C@H](O)[C@@H](NC(=O)c4ccccc4)c4ccccc4)C(C)=C1C3(C)C)[C@]1(OC(C)=O)CO[C@@H]1C[C@@H]2O [taxol]
  tumor size/volume relative to other treatment groups: smaller than tumors in mice treated with vehicle or isotypic control, but not as small as the tumors isolated from mice treated with anti-vimentin antibodies and taxol together
